Each structure is given as a SMILES string.

The assay deals with mice. The assay can be described thus: Analgesic Effect [mice, acetic acid-writhing method]. In kind it is in vivo. The following applies: Mus musculus, po, P.O. (per os), 95% C.L. in parentheses. The text has this:
The analgesic effects of some representative compounds (I) are set forth below in Table I.
[mice, acetic acid-writhing method]
For orientation: In writhing tests, fewer writhes than in controls are read as antinociception.

Broadly, the ED50 is the dose that gives a 50% effect, or the effect in half of the subjects. In the case of `CSc1nnc2n1C=Cc1ccccc1C2` [(I')Z = SCH3, 3-methylthio-11H-s-triazolo[3,4-b][3]benzazepine], the median effective dose (ED50) amounted to 10.5 mg/kg.
The figure for `C[S+]([O-])c1nnc2n1C=Cc1ccccc1C2` (centres unmarked) [(I')Z = SOCH3, 3-methylsulfinyl-11H-s-triazolo[3,4-b][3]benzazepine] is 10.3 mg/kg.

(Values after US4150139A, “Triazolobenzazepine derivatives” (Takeda Chemical Industries, Ltd., priority 1976, dated 1979).)
